The record followed here is article PMC12388126, “Photochemically Assisted Synthesis of Thienobenzotriazole-Based Dual Cholinesterase Inhibitors” (Molecules, 2025).

The target in assay [1] is acetylcholinesterase (AChE) (Electrophorus electricus, UniProt O42275). The assay is described as follows: AChE inhibition, modified Ellman method. It is filed as biochemical. The settings on record: for inhibition at 100 µM / inhibition at 250 µM / inhibition at 50 µM: read-out: AChE Inhibition (%); for IC50: relative IC50 from nonlinear regression, tested 0.01–250 μM. As to the method: (§1) Building on the previously promising in vitro results of thienobenzo-1,2,3-triazolinium salts against cholinesterases, research was extended to a series of structurally related bromide salts. The inhibitory effects of a new set of triazolinium salts (1–4, 7–11, 14–17) on the activities of acetylcholinesterase (AChE) and butyrylcholinesterase (BChE) are summarized in Table 1. Their inhibitory activity was assessed using a modified Ellman method over a wide concentration range (0.01–250 μM). The IC50 values listed in Table 1 are relative IC50 values, obtained directly from the nonlinear regression analysis of the inhibition curves under defined test conditions. For reference, the inhibitory effect at the highest tested concentration is also reported. The results were compared with galantamine, a well-known cholinesterase inhibitor used in the treatment of Alzheimer’s disease.
Chain of acetylcholinesterase (AChE) (O42275 24-633): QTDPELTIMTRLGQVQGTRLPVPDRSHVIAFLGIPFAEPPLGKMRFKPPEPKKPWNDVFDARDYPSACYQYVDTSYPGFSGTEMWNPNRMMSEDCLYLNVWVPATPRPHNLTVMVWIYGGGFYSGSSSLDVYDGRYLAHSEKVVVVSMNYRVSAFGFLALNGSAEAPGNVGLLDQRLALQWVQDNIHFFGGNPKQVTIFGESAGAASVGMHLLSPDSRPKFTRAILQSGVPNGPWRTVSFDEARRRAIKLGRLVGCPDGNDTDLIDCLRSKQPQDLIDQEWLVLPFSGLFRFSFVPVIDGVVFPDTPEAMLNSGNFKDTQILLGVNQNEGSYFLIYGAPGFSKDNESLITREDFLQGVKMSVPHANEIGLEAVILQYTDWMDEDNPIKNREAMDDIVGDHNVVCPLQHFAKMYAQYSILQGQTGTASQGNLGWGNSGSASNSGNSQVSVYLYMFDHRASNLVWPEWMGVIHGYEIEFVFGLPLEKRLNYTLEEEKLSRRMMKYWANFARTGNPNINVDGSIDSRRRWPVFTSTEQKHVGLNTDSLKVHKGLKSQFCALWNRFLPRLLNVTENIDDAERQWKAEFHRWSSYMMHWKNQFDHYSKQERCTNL
(§2) The inhibitory effects of the new synthesized thiabenzo-1,2,3-triazolinium bromide salts, 1–4, 7–11, and 14–17, on acetylcholinesterase (AChE) and butyrylcholinesterase (BChE) activity were evaluated using the modified Ellman’s method.
(§3) DTNB, ATChI, and BTChI were prepared in 50 mM Tris buffer (pH 8.0), while the enzymes were made in 20 mM Tris buffer (pH 7.5). Using a 96-well microplate reader (Agilent, BioTek 800TS, Santa Clara, CA, USA), cholinesterase activity was assessed. Amounts of 180 μL of 50 mM Tris buffer, 10 μL of tested solutions with final concentrations ranging from 0.01 to 250 μM, and 10 μL of an enzyme with a final concentration of 0.03 U/mL were added to the microplate well, which was then left to incubate for 15 min at room temperature. Following incubation, 10 μL of DTNB (final concentration: 0.3 mM) and […] of ATChI/BTChI (final concentration: 0.5 mM) were added to the reaction mixture. After four minutes, the absorbance was measured at 405 nm. Non-enzymatic hydrolysis was assessed as a blank for the control measurement in the absence of inhibitors and enzymes. The samples were tested using the non-enzymatic hydrolysis procedure with an additional inhibitor as a blank. The enzyme was swapped out for the same amount of buffer.
(§4) The inhibition % was determined using the following formula: Inhibition (%) = [(AC − AT)/AC] × 100, where AC is the activity of the enzyme without a test sample and AT is the activity of the enzyme with a test sample. The mean values ± standard deviation are used to illustrate the results. Inhibitory activity of ethanol was deducted from each sample. A nonlinear fit of compound concentration values vs. response was used to determine the IC50 values. Each trazolinium salt was tested against both enzymes in triplicate.
On the technique in general: In Ellman's method for cholinesterases, released thiocholine reacts with DTNB.

Assay [2] concerns the target T1, butyrylcholinesterase (BChE) (Equus caballus, UniProt P81908).
T1 construct: BChE (extracted from equine serum); purchased Sigma-Aldrich; host or cells: equine serum (natural source)
The experiment in a line: BChE inhibition, modified Ellman method. The settings on record: for IC50: relative IC50 from nonlinear regression, tested 0.01–250 μM, read-out: BChE IC50. Format: biochemical. Here is the method:
as §1, §2, §3, §4

T1 sequence (P81908 whole entry): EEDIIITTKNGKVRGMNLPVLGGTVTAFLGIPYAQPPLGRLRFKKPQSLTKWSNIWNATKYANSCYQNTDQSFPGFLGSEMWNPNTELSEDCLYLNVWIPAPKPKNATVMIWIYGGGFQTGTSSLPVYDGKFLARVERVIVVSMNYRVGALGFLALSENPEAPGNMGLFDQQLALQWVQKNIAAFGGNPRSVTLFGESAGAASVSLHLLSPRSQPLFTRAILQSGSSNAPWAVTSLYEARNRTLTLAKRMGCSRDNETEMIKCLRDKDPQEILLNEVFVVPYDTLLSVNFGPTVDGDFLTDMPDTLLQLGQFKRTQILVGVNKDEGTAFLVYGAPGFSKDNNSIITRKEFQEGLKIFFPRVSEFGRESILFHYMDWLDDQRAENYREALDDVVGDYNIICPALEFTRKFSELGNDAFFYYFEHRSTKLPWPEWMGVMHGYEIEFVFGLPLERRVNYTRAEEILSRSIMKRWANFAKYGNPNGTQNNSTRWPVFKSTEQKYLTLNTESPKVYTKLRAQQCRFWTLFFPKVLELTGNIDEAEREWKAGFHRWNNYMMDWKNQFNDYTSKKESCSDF

The term inhibition denotes the drop in the measured response relative to a control, in per cent. One may read the IC50 as the midpoint of a concentration-inhibition curve. Regarding `Cc1ccc(Cn2n[n+](Cc3ccc(Cl)cc3)c3ccc4sccc4c32)cc1` [Compound 10, 3-(4-chlorobenzyl)-1-(4-methylbenzyl)-1H-thieno[3′,2′:3.4]benzo[1.2-d][1.2,3]triazol-3-ium bromide], the inhibition at 100 µM in assay [1] stood at 81.9 ± 0.6%. Besides, the IC50 in assay [1] stood at 6500 nM; in assay [2] it was 1500 nM. In addition, the inhibition at 25 µM in assay [2] (read-out: BChE Inhibition (%)) amounted to 79.9 ± 1.1%.
On to `CC=Cn1n[n+](Cc2ccc(C)cc2)c2ccc3sccc3c21` [Compound 15, 3-(4-methylbenzyl)-1-(prop-1-en-1-yl)-1H-thieno[3′,2′:3.4]benzo[1.2-d][1.2,3]triazol-3-ium], for which, in assay [1], the inhibition at 250 µM was found to be 82.3 ± 0.8% and the concentration for half-maximal inhibition (IC50) was determined as 14400 nM. Also, in assay [2] (read-out: BChE Inhibition (%)), the inhibition at 50 µM came to 84 ± 0.7%. In assay [2], the IC50 is 900 nM.
As for `Cc1ccc(Cn2n[n+](Cc3ccccc3)c3ccc4sccc4c32)cc1` [Compound 8, 3-benzyl-1-(4-methylbenzyl)-1H-thieno[3′,2′:3.4]benzo[1.2-d][1.2,3]triazol-3-ium bromide], in assay [1], the inhibition at 50 µM turned out to be 80.7 ± 2.3% and the IC50 came out at 2600 nM. The inhibition at 10 µM in assay [2] (read-out: BChE Inhibition (%)) amounted to 83.6 ± 1%. The IC50 in assay [2] came out at 400 nM.
As to `COc1cccc(Cn2n[n+](Cc3ccc(Cl)cc3)c3ccc4sccc4c32)c1` [Compound 7, 3-(4-chlorobenzyl)-1-(3-methoxybenzyl)-1H-thieno[3′,2′:3.4]benzo[1.2-d][1.2,3]triazol-3-ium bromide], in assay [1], the inhibition at 100 µM amounted to 79.4 ± 4.9%. For the same compound, the IC50 in assay [1] came out at 11800 nM; in assay [2], 1000 nM. Moreover, the inhibition at 10 µM in assay [2] (read-out: BChE Inhibition (%)) is 78.2 ± 0.4%.
For `CC=Cn1n[n+](Cc2ccc(Cl)cc2)c2ccc3sccc3c21` [Compound 16, 3-(4-chlorobenzyl)-1-(prop-1-en-1-yl)-1H-thieno[3′,2′:3,4]benzo[1,2-d][1–3]triazol-3-ium], the inhibition at 250 µM in assay [1] came to 82.6 ± 1.1%. Besides, the concentration for half-maximal inhibition (IC50) in assay [1] came out at 5400 nM; in assay [2] it was 2300 nM. In addition, the inhibition at 100 µM in assay [2] (read-out: BChE Inhibition (%)) is 84.8 ± 0.8%.
For the compound `Cc1ccc(C[n+]2nn(Cc3cccc(C)c3)c3c4ccsc4ccc32)cc1` [Compound 2, 1-(3-methylbenzyl)-3-(4-methylbenzyl)-1H-thieno[3′,2′:3.4]benzo[1.2-d][1.2,3]triazol-3-ium bromide], in assay [1], the inhibition at 50 µM came out at 82.1 ± 4.2% and the IC50 is 4100 nM. In addition, in assay [2] (read-out: BChE Inhibition (%)), the inhibition at 2.5 µM was 77.6 ± 0.3%. The IC50 in assay [2] was found to be 300 nM.
For `Cc1ccc(Cn2n[n+](Cc3ccc([N+](=O)[O-])cc3)c3ccc4sccc4c32)cc1` [Compound 11, 1-(4-methylbenzyl)-3-(4-nitrobenzyl)-1H-thieno[3′,2′:3.4]benzo[1.2-d][1.2,3]triazol-3-ium bromide], the inhibition at 50 µM in assay [1] worked out at 83.6 ± 2.1%. The figures for the half-maximal inhibitory concentration (IC50) in assay [1] and in assay [2] were 3200 nM and 2700 nM, respectively. Also, the inhibition at 25 µM in assay [2] (read-out: BChE Inhibition (%)) is 81.1 ± 1.7%.
Taken in the same sequence, the figures for `Clc1cccc(Cn2n[n+](Cc3ccc(I)cc3)c3ccc4sccc4c32)c1` [Compound 4, 1-(3-chlorobenzyl)-3-(4-iodobenzyl)-1H-thieno[3′,2′:3.4]benzo[1.2-d][1.2,3]triazol-3-ium bromide] were 74.6 ± 5%, 14200 nM, 800 nM and 83.2 ± 0.9%.
For `Cc1ccc(Cn2n[n+](Cc3ccc(C)cc3)c3ccc4sccc4c32)cc1` [Compound 9, 1.3-bis(4-methylbenzyl)-1H-thieno[3′,2′:3.4]benzo[1.2-d][1.2,3]triazol-3-ium bromide], in that order: 78.7 ± 0.6%, 5700 nM, 3500 nM and 76.6 ± 0.4%.
On to `Cc1cccc(Cn2n[n+](Cc3ccc(I)cc3)c3ccc4sccc4c32)c1` [Compound 3, 3-(4-iodobenzyl)-1-(3-methylbenzyl)-1H-thieno[3′,2′:3.4]benzo[1.2-d][1.2,3]triazol-3-ium bromide], for which the inhibition at 50 µM in assay [1] was found to be 76.7 ± 0.5%; in assay [2] (read-out: BChE Inhibition (%)), 84.9 ± 3.6%. Also, the results for the IC50 in assay [1] and in assay [2] were 5900 nM and 700 nM, respectively.
